53 compounds from patent publication US6476056B2, “Heterocycle substituted aryloxyaniline derivatives and their use as MDR ligands” (Taisho Pharmaceutical Co., Ltd., priority 1997, dated 2002) can be followed below.

Structures can show the parent of a compound that is named as a salt.

The target in this assay is T1, MDR (Rattus norvegicus, UniProt P16257).
T1 construct: Crude mitochondria fractions prepared from rat cerebral cortex were used as a receptor sample; from tissue; host or cells: rat cerebral cortex, crude mitochondria fraction
In words: MDR receptor binding assay ([3H]PK11195 displacement). The settings on record: 50% inhibition of [3H]PK11195 (2 nM) binding; crude mitochondria fraction from rat cerebral cortex; 4° C., 90 minutes. The procedure:
Experiment [MDR Receptor Binding Assay]
Crude mitochondria fractions prepared from rat cerebral cortex were used as a receptor sample, and [^3H]PK11195 was used as a [^3H]-labeled ligand.
A binding assay using the [^3H]-labeled ligand was carried out according to the following method as described in Journal of Pharmacology and Experimental Therapeutics, 262, 971(1992).
Preparation of Receptor Sample: Rat cerebral cortex was homogenized using a Teflon-coated homogenizer in a 10 mM HEPES buffer (pH 7.4) containing 0.32 M sucrose in ten volumes of the wet weight. The homogenate was centrifuged at 900×g for 10 minutes, and the resulting supernatant was centrifuged at 9,000×g for 10 minutes. The precipitate was suspended in a HEPES buffer to give a protein concentration of 1 mg/ml, and centrifuged at 12,000×g for 10 minutes. The resulting precipitate was suspended in a 50 mM HEPES buffer (pH 7.4) to give a crude mitochondria fraction.
MDR Binding Assay: Mitochondria sample (1.0 mg protein/ml), [^3H]PK11195 (2 nM) and the test drug were reacted at 4° C. for 90 minutes. After completion of the reaction, the reaction mixture was filtered with suction through a glass filter (GF/B) treated with 0.3% polyethyleneimine, and the radioactivity on the filter was measured by a liquid scintillation spectrometer.
The binding at the reaction in the presence of 10 μM PK11195 was defined as non-specific binding of [3H]PK11195, and the difference between total binding and non-specific binding was defined as specific binding.

`COc1cccc(CN(C(C)=O)c2ccccc2Oc2ccccc2)c1` [Compound 001]: the IC50 stood at 1.38 nM. This lies in the single-digit nanomolar range.

On to `COc1ccc(CN(C(C)=O)c2ccccc2Oc2ccccc2)cc1` [Compound 002], for which the IC50 worked out at 0.658 nM. Against the preceding compound, the IC50 is about 2.1-fold lower. The compound `CCOc1ccccc1CN(C(C)=O)c1ccccc1Oc1ccccc1` [Compound 003] came in with an IC50 of 0.123 nM.

Turning to `CCOc1ccccc1CN(C(C)=O)c1ccc(Cl)cc1Oc1ccccc1` [Compound 004], the IC50 came out at 0.791 nM.

Compound `CCCOc1ccccc1CN(C(C)=O)c1ccccc1Oc1ccccc1` [Compound 005] yielded an IC50 of 0.118 nM. In turn, `CCCOc1ccccc1CN(C(C)=O)c1ccc(Cl)cc1Oc1ccccc1` [Compound 006] showed an IC50 of 0.677 nM.

`CC(=O)N(Cc1ccccc1OC(C)C)c1ccccc1Oc1ccccc1` [Compound 007, N-Acetyl-N-(2-isopropoxybenzyl)-2-phenoxyaniline] registered an IC50 of 0.0977 nM. This IC50 lies about 6.9-fold lower than the previous one. With `CC(=O)N(Cc1ccccc1OC(C)C)c1ccc(Cl)cc1Oc1ccccc1` [Compound 008] the figure was 0.87 nM; with `CC(=O)N(Cc1ccccc1OCC(C)C)c1ccccc1Oc1ccccc1` [Compound 009], 0.112 nM; with `CCCCCOc1ccccc1CN(C(C)=O)c1ccccc1Oc1ccccc1` [Compound 010], 0.149 nM. With `CC(=O)N(Cc1ccccc1OCCC(C)C)c1ccccc1Oc1ccccc1` [Compound 011] the figure was 0.163 nM; with `COc1ccccc1CCN(C(C)=O)c1ccccc1Oc1ccccc1` [Compound 012, N-Acetyl-N-[2-(2-methoxyphenyl)ethyl]-2-phenoxyaniline], 0.453 nM; with `COc1ccccc1N(C(C)=O)c1ccccc1Oc1ccccc1` [Compound 013, N-Acetyl-N-(2-methoxyphenyl)-2-phenoxyaniline], 9.77 nM. With `COc1ccccc1C(C)N(C(C)=O)c1ccccc1Oc1ccccc1` (centres unmarked) [Compound 014] the figure was 2.21 nM.

`COc1cccc(CN(C(C)=O)c2ccccc2Oc2ccccc2)c1OC` [Compound 015] registered a 50% inhibitory concentration (IC50) of 0.285 nM. `COc1ccc(CN(C(C)=O)c2ccccc2Oc2ccccc2)c(OC)c1` [Compound 016, N-Acetyl-N-(2,4-dimethoxybenzyl)-2-phenoxyaniline] returned an IC50 of 0.722 nM. In turn, `COc1ccc(OC)c(CN(C(C)=O)c2ccccc2Oc2ccccc2)c1` [Compound 017] showed an IC50 of 0.085 nM. Compound `COc1ccc(OC)c(CN(C(C)=O)c2cc(C)ccc2Oc2ccccc2)c1` [Compound 019] registered an IC50 of 0.196 nM.

`COc1ccc(OC)c(CN(C(C)=O)c2cc(F)ccc2Oc2ccccc2)c1` [Compound 021] gave an IC50 of 0.31 nM. As to `COc1ccc(OC)c(CN(C(C)=O)c2ccc(Cl)cc2Oc2ccccc2)c1` [Compound 022], the IC50 turned out to be 0.179 nM. In turn, `COc1ccc(OC)c(CN(C(C)=O)c2cc(Cl)ccc2Oc2ccccc2)c1` [Compound 023] came in with an IC50 of 0.424 nM. This IC50 is about 2.4-fold higher than that of the compound before.

`COc1cc(CN(C(C)=O)c2ccccc2Oc2ccccc2)cc(OC)c1` [Compound 025] gave an IC50 of 0.26 nM. Take `CC(=O)N(Cc1ccccc1O)c1ccccc1Oc1ccccc1` [Compound 027, N-acetyl-N-(2-hydroxybenzyl)-2-phenoxyaniline]: the IC50 came to 3.2 nM. `CC(=O)Oc1ccccc1CN(C(C)=O)c1ccccc1Oc1ccccc1` [Compound 028, N-acetyl-N-(2-acetyloxybenzyl)-2-phenoxyaniline] showed an IC50 of 3.2 nM.

In the case of `CC(=O)N(Cc1ccccc1Cl)c1ccccc1Oc1ccccc1` [Compound 029, N-Acetyl-N-(2-chlorobenzyl)-2-phenoxyaniline], the half-maximal inhibitory concentration (IC50) came out at 0.486 nM.

`CC(=O)N(Cc1cccc(Cl)c1)c1ccccc1Oc1ccccc1` [Compound 030]: the IC50 was 1.96 nM. As for `CC(=O)N(Cc1ccc(Cl)cc1)c1ccccc1Oc1ccccc1` [Compound 031], the figure is 1.23 nM. On to `CC(=O)N(Cc1ccccc1F)c1ccccc1Oc1ccccc1` [Compound 032], for which the IC50 was found to be 6.73 nM. The compound `CC(=O)N(Cc1ccccc1Br)c1ccccc1Oc1ccccc1` [Compound 033] returned an IC50 of 3.51 nM.

In turn, `CSc1ccccc1CN(C(C)=O)c1ccccc1Oc1ccccc1` [Compound 034] had an IC50 of 0.179 nM. Consider `COC(=O)c1ccccc1CN(C(C)=O)c1ccccc1Oc1ccccc1` [Compound 040, N-acetyl-N-(2-methoxycarbonylbenzyl)-2-phenoxyaniline], for which the IC50 came to 0.0643 nM. Consider `CC(=O)N(Cc1ccccc1C=O)c1ccccc1Oc1ccccc1` [Compound 046, N-acetyl-N-(2-formylbenzyl)-2-phenoxyaniline], for which the IC50 was 0.376 nM. This IC50 is about 5.8-fold higher than that of the compound before. For `CC(=O)c1ccccc1CN(C(C)=O)c1ccccc1Oc1ccccc1` [Compound 047, N-Acetyl-N-(2-acetylbenzyl)-2-phenoxyaniline], the IC50 worked out at 0.265 nM. Compound `CC(=O)N(Cc1ccccc1C)c1ccccc1Oc1ccccc1` [Compound 049] came in with an IC50 of 4.23 nM.

The compound `CCCc1ccccc1CN(C(C)=O)c1ccccc1Oc1ccccc1` [Compound 050, N-Acetyl-N-(2-propylbenzyl)-2-phenoxyaniline] showed an IC50 of 0.215 nM. Consider `C=Cc1ccccc1CN(C(C)=O)c1ccccc1Oc1ccccc1` [Compound 051], for which the IC50 was determined as 0.196 nM.

With `CC(=O)N(Cc1ccccc1[N+](=O)[O-])c1ccccc1Oc1ccccc1` [Compound 052, N-acetyl-N-(2-nitrobenzyl)-2-phenoxyaniline], the half-inhibitory concentration (IC50) turned out to be 4.64 nM. As for `CC(=O)N(Cc1ccccc1N1CCCC1)c1ccccc1Oc1ccccc1` [Compound 054, N-Acetyl-N-(2-pyrrolidinobenzyl)-2-phenoxyaniline monohydrochloride], the figure is 1.26 nM. As for `CC(=O)N(Cc1ccc(N(C)C)cc1)c1ccccc1Oc1ccccc1` [Compound 055], the figure is 1.83 nM. As for `CC(=O)N(Cc1ccccc1)c1ccccc1Oc1ccccc1` [Compound 056], the IC50 was 2.92 nM. Against the preceding compound, the IC50 is about 1.6-fold higher. As for `COc1cccnc1CN(C(C)=O)c1ccccc1Oc1ccccc1` [Compound 060], the figure is 0.955 nM; as for `COc1ncccc1CN(C(C)=O)c1ccccc1Oc1ccccc1` [Compound 061], 0.498 nM. As for `COc1ccncc1CN(C(C)=O)c1ccccc1Oc1ccccc1` [Compound 062], the figure is 1.05 nM. `CCC(=O)N(Cc1ccccc1OC)c1ccccc1Oc1ccccc1` [Compound 064]: the IC50 turned out to be 0.0933 nM. This IC50 is about 11-fold lower than that of the compound before. For `CCOc1ccccc1CN(C(=O)CC)c1ccc(Cl)cc1Oc1ccccc1` [Compound 066], the IC50 amounted to 0.925 nM. With `CCCOc1ccccc1CN(C(=O)CC)c1ccc(Cl)cc1Oc1ccccc1` [Compound 067] the figure was 1.08 nM; with `CCCC(=O)N(Cc1ccccc1OC)c1ccccc1Oc1ccccc1` [Compound 071], 1.26 nM.

`COc1ccccc1CN(C(=O)C(C)C)c1ccccc1Oc1ccccc1` [Compound 072] had an IC50 of 3.51 nM. Against the preceding compound, the IC50 is about 2.8-fold higher. Compound `CCCCC(=O)N(Cc1ccccc1OC)c1ccccc1Oc1ccccc1` [Compound 073] gave an IC50 of 1.52 nM.

In turn, `CCCCCC(=O)N(Cc1ccccc1OC)c1ccccc1Oc1ccccc1` [Compound 075] gave an IC50 of 1.83 nM. This IC50 and that of the compound before are within 1.5-fold of each other. Consider `COc1ccccc1CN(C(=O)C1CC1)c1ccccc1Oc1ccccc1` [Compound 076], for which the IC50 turned out to be 0.955 nM. The compound `COc1ccccc1CN(C(=O)C1CCC1)c1ccccc1Oc1ccccc1` [Compound 077] showed an IC50 of 5.59 nM. On to `COc1ccccc1CN(C(=O)c1ccccc1)c1ccccc1Oc1ccccc1` [Compound 079], for which the IC50 worked out at 4.64 nM. This IC50 and that of the compound before are within 1.5-fold of each other.
